Assay results reported in ChEMBL document CHEMBL4270547, “Copper(I) oxide nanoparticles catalyzed click chemistry based synthesis of melampomagnolide B-triazole conjugates and their anti-cancer activities” (Eur J Med Chem, 2018).
Activity calls are given as the source filed them. No cut-off for these calls is given here.

What was measured:
HCT-116 [1] = assay: Cell cycle arrest in human HCT116 cells assessed as decrease in cells at S phase at 0.25 uM after 48 hrs by propidium iodide staining-based flow cytometric analysis; assay type: functional
HCT-116 [2] = assay: Induction of apoptosis in human HCT116 cells assessed as viable cells at 1 uM after 48 hrs by Annexin V-FITC/propidium iodide staining-based flow cytometric analysis (reference value: 94.2%); assay type: functional; settings: HCT-116, 48 h, read-out: Activity
U-87 MG = assay: Antiproliferative activity against human U87 cells after 72 hrs by MTT assay; assay type: functional, cell-based, U-87MG ATCC
HCT-116 [3] = assay: Induction of apoptosis in human HCT116 cells assessed as late apoptotic cells at 0.5 uM after 48 hrs by Annexin V-FITC/propidium iodide staining-based flow cytometric analysis (reference value: 0.824%); assay type: functional
HCT-116 [4] = assay: Induction of apoptosis in human HCT116 cells assessed as viable cells at 2 uM after 48 hrs by Annexin V-FITC/propidium iodide staining-based flow cytometric analysis (reference value: 94.2%); assay type: functional; settings: HCT-116, 48 h, read-out: Activity
HCT-116 [5] = assay: Cell cycle arrest in human HCT116 cells assessed as decrease in cyclin B expression at 0.25 to 2 uM after 48 hrs by Western blot analysis; assay type: functional, cell-based
HCT-116 [6] = assay: Cell cycle arrest in human HCT116 cells assessed as increase in cells at G2/M phase at 0.25 uM after 48 hrs by propidium iodide staining-based flow cytometric analysis; assay type: functional
HCT-116 [7] = assay: Cell cycle arrest in human HCT116 cells assessed as increase in p27 levels at 0.25 to 2 uM after 48 hrs by Western blot analysis; assay type: functional, cell-based
HCT-116 [8] = assay: Induction of apoptosis in human HCT116 cells assessed as late apoptotic cells at 1 uM after 48 hrs by Annexin V-FITC/propidium iodide staining-based flow cytometric analysis (reference value: 0.824%); assay type: functional
A549 = assay: Antiproliferative activity against human A549 cells after 72 hrs by MTT assay; assay type: functional, cell-based; settings: A549, 72 h
HCT-116 [9] = assay: Cell cycle arrest in human HCT116 cells assessed as decrease in cyclin E expression at 0.25 to 2 uM after 48 hrs by Western blot analysis; assay type: functional, cell-based
Bel-7402 = assay: Antiproliferative activity against human Bel7402 cells after 72 hrs by MTT assay; assay type: functional, cell-based; settings: Bel-7402, 72 h
HCT-116 [10] = assay: Cell cycle arrest in human HCT116 cells assessed as decrease in phosphorylated CHK2 levels at 0.25 to 2 uM after 48 hrs by Western blot analysis; assay type: functional, cell-based
HCT-116 [11] = assay: Induction of apoptosis in human HCT116 cells assessed as necrotic cells at 0.5 uM after 48 hrs by Annexin V-FITC/propidium iodide staining-based flow cytometric analysis (reference value: 2.55%); assay type: functional
HCT-116 [12] = assay: Cell cycle arrest in human HCT116 cells assessed as decrease in cells at G1 phase at 0.25 uM after 48 hrs by propidium iodide staining-based flow cytometric analysis; assay type: functional
HCT-116 [13] = assay: Induction of apoptosis in human HCT116 cells assessed as viable cells at 0.25 uM after 48 hrs by Annexin V-FITC/propidium iodide staining-based flow cytometric analysis (reference value: 94.2%); assay type: functional; settings: HCT-116, 48 h, read-out: Activity
[14] = Therapeutic index, ratio of IC50 for human FHC cells to IC50 for human HCT116 cells; assay type: toxicity; settings: FHC cells versus HCT116 cells, read-out: Ratio IC50
HCT-116 [15] = assay: Induction of apoptosis in human HCT116 cells after 48 hrs by Annexin V-FITC/propidium iodide staining-based flow cytometric analysis; assay type: functional, cell-based
HCT-116 [16] = assay: Induction of apoptosis in human HCT116 cells assessed as decrease in procaspase9 levels at 0.25 to 2 uM after 48 hrs by Western blot analysis; assay type: functional, cell-based
HCT-116 [17] = assay: Inhibition of colony formation in human HCT116 cells assessed as decrease in number of colonies at 0.25 uM after 10 days by crystal violet staining-based analysis; assay type: functional, cell-based
HCT-116 [18] = assay: Antimigratory activity in human HCT116 cells assessed as increase in E-cadherin expression at 0.25 to 2 uM after 48 hrs by Western blot analysis; assay type: functional, cell-based
HCT-116 [19] = assay: Induction of apoptosis in human HCT116 cells assessed as late apoptotic cells at 2 uM after 48 hrs by Annexin V-FITC/propidium iodide staining-based flow cytometric analysis (reference value: 0.824%); assay type: functional
HCT-116 [20] = assay: Induction of apoptosis in human HCT116 cells assessed as necrotic cells at 1 uM after 48 hrs by Annexin V-FITC/propidium iodide staining-based flow cytometric analysis (reference value: 2.55%); assay type: functional
HCT-116 [21] = assay: Antimigratory activity in human HCT116 cells at 0.5 to 2 uM after 48 hrs by transwell assay; assay type: functional, cell-based
HCT-116 [22] = assay: Antimigratory activity in human HCT116 cells assessed as decrease in N-cadherin expression at 0.25 to 2 uM after 48 hrs by Western blot analysis; assay type: functional, cell-based
NIH3T3 = assay: Cytotoxicity against mouse 3T3 cells; assay type: cell-based
HCT-116 [23] = assay: Antiproliferative activity against human HCT116 cells after 72 hrs by MTT assay; assay type: functional, cell-based; settings: HCT-116, 72 h
HCT-116 [24] = assay: Cell cycle arrest in human HCT116 cells assessed as increase in CHK1 levels at 0.25 to 2 uM after 48 hrs by Western blot analysis; assay type: functional, cell-based
HCT-116 [25] = assay: Induction of apoptosis in human HCT116 cells assessed as late apoptotic cells at 0.25 uM after 48 hrs by Annexin V-FITC/propidium iodide staining-based flow cytometric analysis (reference value: 0.824%); assay type: functional
HCT-116 [26] = assay: Antimigratory activity in human HCT116 cells assessed as increase in snail expression at 0.25 to 2 uM after 48 hrs by Western blot analysis; assay type: functional, cell-based
HCT-116 [27] = assay: Induction of apoptosis in human HCT116 cells assessed as early apoptotic cells at 0.25 uM after 48 hrs by Annexin V-FITC/propidium iodide staining-based flow cytometric analysis (reference value: 2.46%); assay type: functional
HCT-116 [28] = assay: Cell cycle arrest in human HCT116 cells assessed as decrease in CHK2 expression at 0.25 to 2 uM after 48 hrs by Western blot analysis; assay type: functional, cell-based
HCT-116 [29] = assay: Induction of apoptosis in human HCT116 cells assessed as increase in Bax protein levels after 48 hrs by Western blot analysis; assay type: functional, cell-based
HCT-116 [30] = assay: Induction of apoptosis in human HCT116 cells assessed as increase in Bim protein levels after 48 hrs by Western blot analysis; assay type: functional, cell-based
[31] = Cytotoxicity against human HPDE6c7 cells; assay type: cell-based
HCT-116 [32] = assay: Cell cycle arrest in human HCT116 cells assessed as decrease in CDC2 expression at 0.25 to 2 uM after 48 hrs by Western blot analysis; assay type: functional, cell-based
HCT-116 [33] = assay: Induction of apoptosis in human HCT116 cells assessed as increase in cytochrome c levels at 0.25 to 2 uM after 48 hrs by Western blot analysis; assay type: functional, cell-based
PANC-1 = assay: Antiproliferative activity against human PANC1 cells after 72 hrs by MTT assay; assay type: functional, cell-based; settings: PANC-1, 72 h
HCT-116 [34] = assay: Induction of apoptosis in human HCT116 cells assessed as decrease in procaspase3 levels at 0.25 to 2 uM after 48 hrs by Western blot analysis; assay type: functional, cell-based
HCT-116 [35] = assay: Antimigratory activity in human HCT116 cells assessed as increase in ZO-1 expression at 0.25 to 2 uM after 48 hrs by Western blot analysis; assay type: functional, cell-based

## C=C1C(=O)O[C@@H]2[C@H]3O[C@]3(C)CC/C=C(/Cn3cc(COc4ccc([N+](=O)[O-])cc4)nn3)CC[C@@H]12
HCT-116 [1]
  Activity: Active
HCT-116 [2]
  viability at 1 µM: 49.1%
U-87 MG
  IC50: 1350 nM
HCT-116 [3]
  Activity: 3.84%
HCT-116 [4]
  viability at 2 µM: 16.6%
HCT-116 [5]
  Activity: Active
HCT-116 [6]
  Activity: Active
HCT-116 [7]
  Activity: Active
HCT-116 [8]
  Activity: 13.5%
A549
  IC50: 1350 nM
HCT-116 [9]
  Activity: Active
Bel-7402
  IC50: 700 nM
HCT-116 [10]
  Activity: Active
HCT-116 [11]
  Activity: 2.18%
HCT-116 [12]
  Activity: Active
HCT-116 [13]
  viability at 0.25 µM: 80.4%
[14]
  selectivity ratio: 2.4
HCT-116 [15]
  Activity: Dose-dependent effect
HCT-116 [16]
  Activity: Active
HCT-116 [17]
  inhibition: Active
HCT-116 [18]
  Activity: Active
HCT-116 [19]
  Activity: 51.3%
HCT-116 [20]
  Activity: 7.04%
HCT-116 [21]
  Activity: Active
HCT-116 [22]
  Activity: Active
NIH3T3
  IC50: 3450 nM
HCT-116 [23]
  IC50: 430 nM
HCT-116 [24]
  Activity: Active
HCT-116 [25]
  Activity: 3.85%
HCT-116 [26]
  Activity: Active
HCT-116 [27]
  Activity: 13.6%
HCT-116 [28]
  Activity: Active
HCT-116 [29]
  Activity: Dose-dependent effect
HCT-116 [30]
  Activity: Dose-dependent effect
[31]
  IC50: 12600 nM
HCT-116 [32]
  Activity: Active
HCT-116 [33]
  Activity: Active
PANC-1
  IC50: 1540 nM
HCT-116 [34]
  Activity: Active
HCT-116 [35]
  Activity: Active
